# Test results published in PubChem BioAssay AID2060360 (Molecular Pharmacology Branch, DTP, NCI, 2025).
# Tested on: 282377-053-R-J1-PDC tumor spheroids, viability
# Experiment: Anticancer human tumor 282377-053-R-J1-PDC patient-derived colon adenocarcinoma cell line growth inhibition [TAK]
# Conditions: spheroids with HUVEC and MSC; for IC50: curve of first compound; for viability, T/C: stronger effect = lower value
# Outline: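 Spheroids of 60% malignant cells, 25% HUVEC and 15% hMSC were exposed to targeted agents combined with TAK-243 or ipatasertib. Concentrations started at or near clinical Cmax (10 microM if unknown) and descended in half-log steps.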
# [1] = second compound 0.3 µM, first compound 0.0316 µM
# [2] = second compound 0.3 µM, first compound 0.1 µM
# [3] = second compound 0.949 µM, first compound 0.0316 µM
# [4] = second compound 0.949 µM, first compound 0.1 µM
# [5] = second compound 3 µM, first compound 0.0316 µM
# [6] = second compound 3 µM, first compound 0.1 µM
# [7] = second compound 9.49 µM, first compound 0.0316 µM
# [8] = second compound 9.49 µM, first compound 0.1 µM
# [9] = second compound 30 µM, first compound 0.0316 µM
# [10] = second compound 30 µM, first compound 0.1 µM
# 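Note: spheroids exposed to drugs for seven days before readout.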
structure (smiles),measurement,setting,value
CC(C)(C)c1nc(-c2cccc(NS(=O)(=O)c3c(F)cccc3F)c2F)c(-c2ccnc(N)n2)s1 + CC(C)NCC(C(=O)N1CCN(c2ncnc3c2C(C)CC3O)CC1)c1ccc(Cl)cc1,IC50,second compound 0.3 µM,> 10000 nM
same,IC50,second compound 0.949 µM,> 10000 nM
same,IC50,second compound 3 µM,> 10000 nM
same,IC50,second compound 9.49 µM,> 10000 nM
same,IC50,second compound 30 µM,437 nM
same,"viability, T/C",[1],83.5%
same,"viability, T/C",[2],81%
same,"viability, T/C","second compound 0.3 µM, first compound 0.316 µM",79.3%
same,"viability, T/C","second compound 0.3 µM, first compound 1 µM",72%
same,"viability, T/C","second compound 0.3 µM, first compound 3.16 µM",71.3%
same,"viability, T/C","second compound 0.3 µM, first compound 10 µM",63.7%
same,"viability, T/C",[3],78.4%
same,"viability, T/C",[4],79.7%
same,"viability, T/C","second compound 0.949 µM, first compound 0.316 µM",71.9%
same,"viability, T/C","second compound 0.949 µM, first compound 1 µM",66.5%
same,"viability, T/C","second compound 0.949 µM, first compound 3.16 µM",59.6%
same,"viability, T/C","second compound 0.949 µM, first compound 10 µM",57.5%
same,"viability, T/C",[5],77.7%
same,"viability, T/C",[6],74.8%
same,"viability, T/C","second compound 3 µM, first compound 0.316 µM",69.9%
same,"viability, T/C","second compound 3 µM, first compound 1 µM",58.8%
same,"viability, T/C","second compound 3 µM, first compound 3.16 µM",54.4%
same,"viability, T/C","second compound 3 µM, first compound 10 µM",53.6%
same,"viability, T/C",[7],71.6%
same,"viability, T/C",[8],72.4%
same,"viability, T/C","second compound 9.49 µM, first compound 0.316 µM",65.5%
same,"viability, T/C","second compound 9.49 µM, first compound 1 µM",51.2%
same,"viability, T/C","second compound 9.49 µM, first compound 3.16 µM",47.5%
same,"viability, T/C","second compound 9.49 µM, first compound 10 µM",52.8%
same,"viability, T/C",[9],60%
same,"viability, T/C",[10],58.4%
same,"viability, T/C","second compound 30 µM, first compound 0.316 µM",54.6%
same,"viability, T/C","second compound 30 µM, first compound 1 µM",36.1%
same,"viability, T/C","second compound 30 µM, first compound 3.16 µM",35.7%
same,"viability, T/C","second compound 30 µM, first compound 10 µM",42.6%
CC(C)n1nc(-c2ccc3oc(N)nc3c2)c2c(N)ncnc21 + CC(C)NCC(C(=O)N1CCN(c2ncnc3c2C(C)CC3O)CC1)c1ccc(Cl)cc1,IC50,second compound 0.3 µM,> 100 nM
same,IC50,second compound 0.949 µM,66.6 nM
same,IC50,second compound 3 µM,30.3 nM
same,IC50,second compound 9.49 µM,14.7 nM
same,IC50,second compound 30 µM,4.07 nM
same,"viability, T/C","second compound 0.3 µM, first compound 0.000316 µM",106%
same,"viability, T/C","second compound 0.3 µM, first compound 0.001 µM",103%
same,"viability, T/C","second compound 0.3 µM, first compound 0.00316 µM",95.7%
same,"viability, T/C","second compound 0.3 µM, first compound 0.01 µM",88%
same,"viability, T/C",[1],69.7%
same,"viability, T/C",[2],56.1%
same,"viability, T/C","second compound 0.949 µM, first compound 0.000316 µM",92%
same,"viability, T/C","second compound 0.949 µM, first compound 0.001 µM",93%
same,"viability, T/C","second compound 0.949 µM, first compound 0.00316 µM",86.3%
same,"viability, T/C","second compound 0.949 µM, first compound 0.01 µM",89.9%
same,"viability, T/C",[3],71.7%
same,"viability, T/C",[4],38%
same,"viability, T/C","second compound 3 µM, first compound 0.000316 µM",83.5%
same,"viability, T/C","second compound 3 µM, first compound 0.001 µM",85.9%
same,"viability, T/C","second compound 3 µM, first compound 0.00316 µM",79%
same,"viability, T/C","second compound 3 µM, first compound 0.01 µM",71.5%
same,"viability, T/C",[5],49.1%
same,"viability, T/C",[6],22.7%
same,"viability, T/C","second compound 9.49 µM, first compound 0.000316 µM",81.4%
same,"viability, T/C","second compound 9.49 µM, first compound 0.001 µM",77.3%
same,"viability, T/C","second compound 9.49 µM, first compound 0.00316 µM",74.7%
same,"viability, T/C","second compound 9.49 µM, first compound 0.01 µM",60.5%
same,"viability, T/C",[7],30%
same,"viability, T/C",[8],14.8%
same,"viability, T/C","second compound 30 µM, first compound 0.000316 µM",68.8%
same,"viability, T/C","second compound 30 µM, first compound 0.001 µM",70.4%
same,"viability, T/C","second compound 30 µM, first compound 0.00316 µM",56.5%
same,"viability, T/C","second compound 30 µM, first compound 0.01 µM",25.9%
same,"viability, T/C",[9],15.9%
same,"viability, T/C",[10],8.24%
